Experimental data: patent publication US20060041017A1, “Synergistic conjugated linoleic acid (CLA) and carnitine combination” (priority 2004, published 2006)

Legend:
Type in all cases: in vivo
[1] = test system: carnitine palmitoyl transferase (CPT 1); test: CPT I activity in brown adipose tissue after two weeks of daily oral gavage; details: adult rats, oral gavage daily for two weeks; for CPT I activity in brown adipose tissue (low dose) % Control: control = corn oil; for CPT I activity in brown adipose tissue (standard dose) % Control: control = water; for CPT I activity in brown adipose tissue (low dose) Mean ± SEM: L-Carnitine 68.25 mg, CLA 91 mg, Carnitine+CLA 68.25 mg+91 mg; for CPT I activity in brown adipose tissue (standard dose) Mean ± SEM: L-Carnitine 273 mg, CLA 354 mg, Carnitine+CLA 273 mg+364 mg
Description: Brown adipose tissue is an important site for long-term storage of fat in the body and for the rapid metabolism of fat for thermogenesis. CPT I is a key enzyme in this process and it has an essential role In the metabolism of fats by transporting long chain fatty acids into the Inner mitochondria for oxidation. The first experiment involved the following groups of adult rats. The treatment involved administration of the following products daily by oral gavage for two weeks, the control group receiving water. Carnitine was administered as the fumarate salt. • 1. Control (water)−(1 mL) • 2. L-Carnitine−273 mg (in 1 mL water) • 3. CLA−354 mg (In 1 mL corn oil) • 4. Carnitine+CLA−273 mg+364 mg (in 1 mL corn oil) At the end of two weeks, the animals were euthanized and brown adipose tissue was excised for CPT I assay according to Rahman et al(2001). […] Corn Oil−(1 mL) • 2. L-Carnitine−68.25 mg (in 1 mL water) • 3. CLA−91 mg (in 1 mL corn oil) • 4. Carnitine+CLA−68.25 mg+91 mg (in 1 mL corn oil)

heart mitochondrial CoQ = test: Heart mitochondrial CoQ levels (HPLC) after 2 weeks of supplementation; details: Wistar rats; for Heart mitochondrial CoQ content (CoQ10-OX+CoQ9-OX) in comparison with control group: 2 weeks, result in words; for HEART mitochondria CoQ9-OX / HEART mitochondria CoQ10 + CoQ9 / HEART mitochondria CoQ10-OX: oral gavage daily 2 weeks, 91 mg CLA, 68,25 mg L-carnitine fumarate, means ± s.e.m.
Experimental: (§1) Methods: Four groups of 3-months old Wistar rats were given the following treatments by oral gavage daily for 2 weeks: (1) C (control)−1 ml corn oil, (2) CLA−91 mg CLA (in corn oil), (3) CAR−68,25 mg L-carnitine fumarate (in corn oil), (4) CLA+CAR−91 mg CLA with 68,25 mg L-carnitine fumarate (in corn oil). Body weight and body fat weight (corpus adiposum nuchae, corpus adiposum, perirenal tissue, omentum majus) were measured. CoQ 10 and CoQ9 in isolated mitochondria were estimated by HPLC method. For evaluation of parameters of oxidative phosphorylation were used Gilson oxygraph records of respiratory chain by using Clark oxygen electrode (S3— ADP stimulated respiration, S4— basal respiration, OPR—rate of ATP production). A spectrophotometric assay was used for CPT activity.

[2] = test system: Carnitine palmitoytransferase (CPT); test: CPT activity in heart mitochondria (spectrophotometric assay); details: Wistar rats, oral gavage daily 2 weeks; 91 mg CLA, 68,25 mg L-carnitine fumarate; means ± s.e.m.
Experimental: as §1

kidney mitochondrial CoQ = test: Kidney mitochondrial CoQ levels (HPLC) after 2 weeks of supplementation; details: Wistar rats; for Kidney mitochondrial CoQ content (CoQ10-OX+CoQ9-OX) in comparison with control group: 2 weeks, result in words; for KIDNEY mitochondria CoQ9-OX / KIDNEY mitochondria CoQ10 + CoQ9 / KIDNEY mitochondria CoQ10-OX: oral gavage daily 2 weeks, 91 mg CLA, 68,25 mg L-carnitine fumarate
Experimental: as §1

[3] = test system: Carnitine palmitoytransferase (CPT); test: CPT activity in kidney mitochondria (spectrophotometric assay); details: Wistar rats, oral gavage daily 2 weeks; 91 mg CLA, 68,25 mg L-carnitine fumarate
Experimental: as §1

Row | Molecule | CPT I activity in brown adipose tissue (low dose) % Control [1] | CPT I activity in brown adipose tissue (standard dose) % Control [1] | CPT I activity in brown adipose tissue (low dose) Mean ± SEM [1] | CPT I activity in brown adipose tissue (standard dose) Mean ± SEM [1] | Heart mitochondrial CoQ content (CoQ10-OX+CoQ9-OX) in comparison with control group (heart mitochondrial CoQ) | HEART mitochondria CoQ9-OX (heart mitochondrial CoQ) | HEART mitochondria CoQ10 + CoQ9 (heart mitochondrial CoQ) | HEART mitochondria CoQ10-OX (heart mitochondrial CoQ) | HEART mitochondria CPT [2] | Kidney mitochondrial CoQ content (CoQ10-OX+CoQ9-OX) in comparison with control group (kidney mitochondrial CoQ) | KIDNEY mitochondria CoQ9-OX (kidney mitochondrial CoQ) | KIDNEY mitochondria CoQ10 + CoQ9 (kidney mitochondrial CoQ) | KIDNEY mitochondria CoQ10-OX (kidney mitochondrial CoQ) | KIDNEY mitochondria CPT [3]
1 | C[N+](C)(C)CC(O)CC(=O)[O-] (stereo not shown) [Carnitine, 3-hydroxy-4-N,N, N-trlmethylaminobutyrate] | 125 % Control | 117.85 % Control | 27.024 ± 2.074 nmoles/mg protein/min | 26.808 ± 2.373 nmoles/mg protein/min | significantly stimulated | 4.692 ± 0.168 nmol/mg prot. | 5.147 ± 0.181 nmol/mg prot. | 0.452 ± 0.021 nmol/mg prot. | 12.36 ± 1.759 nmol/mg rot./min | significantly stimulated | 1.290 ± 0.119 nmol/mg prot. | 1.471 ± 0.128 nmol/mg prot. | 0.138 ± 0.012 nmol/mg prot. | 2.974 ± 0.466 nmol/mg rot./min
2 | octadecadienoic acid [CLA] | 121.53 % Control | 129.82 % Control | 27.840 ± 1.259 nmoles/mg protein/min | 29.530 + 1.590 nmoles/mg protein/min | significantly stimulated | 3.379 ± 0.261 nmol/mg prot. | 3.722 ± 0.298 nmol/mg prot. | 0.343 ± 0.041 nmol/mg prot. | 15.52 ± 1.080 nmol/mg rot./min | significantly stimulated | 1.162 ± 0.102 nmol/mg prot. | 1.284 ± 0.105 nmol/mg prot. | 0.122 ± 0.005 nmol/mg prot. | 6.517 ± 0.351 nmol/mg rot./min
